Data published in US4835168A, “Thiadiazole antiviral agents” (Eli Lilly and Company, priority 1988, dated 1989).
≈ marks a conversion by molar mass, not a printed value. Entries after “also recorded” stand apart in the source; their conditions may differ. Structures can show the parent of a compound that is named as a salt. Where two headings read alike, the source gives them in different places.

Experiments:
[1] = Malinoski et al., Virology 1981; cited from earlier work
influenza A-NWS = test: plaque-reduction study in MDCK cells (Table III); assay type: cell-based; conditions: values marked *: one discordant test >50 not incorporated; for IC50: MDCK, read-out: IC50, inhibition of plaque formation by 50 percent
[2] = test system: influenza A1-Ann Arbor strain; test: in vivo mouse influenza test, survival index, relative activity (Table I); conditions: CD-1 mice, 10 days
influenza B-Great Lake [3] = test: plaque-reduction study in MDCK cells (Table III); assay type: cell-based; conditions: for IC50: MDCK, read-out: IC50, inhibition of plaque formation by 50 percent
influenza Al-Ann Arbor [4] = test: plaque-reduction study in MDCK cells (Table III); assay type: cell-based; conditions: for IC50: MDCK, read-out: IC50, inhibition of plaque formation by 50 percent
[5] = in vivo conversion to salt form of the compound of Example 6
RSV = test: in vivo antiviral test in hamster (Table IV); conditions: reduction in nasal washing virus titer vs control
Procedure: (§1) As previously mentioned, in vivo antiviral test results may vary due to numerous factors. […] The compounds of Examples 1 and 7 were tested against several different viruses using different kinds of test animals and different modes of oral and topical administration. In Table IV below, Column 1 indicated the test compound, while Column 2 discloses the virus the compound was employed against. Columns 3 and 4 describe the test animal and the method of administration, respectively. Finally, Column 5 discloses whether or not antiviral activity was shown.

Parainfluenza (type 3) = test: plaque-reduction test (Table V); assay type: cell-based; conditions: read-out: IC50, inhibition of plaque formation by 50 percent
HSV I = test: in vivo antiviral test in mouse (Table IV); conditions: drinking water, more survivors than control
Procedure: as §1

Herpes I = test: plaque-reduction test (Table V); assay type: cell-based; conditions: BSCl cells, read-out: IC50, inhibition of plaque formation by 50 percent
Vaccinia = test: microbe, parasite or virus in culture; assay type: cell-based; conditions: Orthopoxvirus vaccinia, read-out: IC50, inhibition of plaque formation by 50 percent
Semliki Forest = test: plaque-reduction test (Table V); assay type: cell-based; conditions: BSCl cells, read-out: IC50, inhibition of plaque formation by 50 percent
HSV II = test: in vivo antiviral test in guinea pig (Table IV); conditions: topical cream, fewer lesions than control
Procedure: as §1

HIV = test: preliminary testing against retroviruses
[6] = test system: Vesicular Stomatitus Virus; test: in vitro activity against Vesicular Stomatitus Virus; assay type: cell-based
Friend Leukemia = test: preliminary testing against retroviruses
Herpes II = test: plaque-reduction test (Table V); assay type: cell-based; conditions: BSCl cells, read-out: IC50, inhibition of plaque formation by 50 percent
influenza B-Maryland = test: survival of infected mice, oral in diet (Table II); assay type: in vivo; conditions: control 14/50
Excerpt: (§2) Again, due to the nature of in vivo antiviral tests the in vivo antiviral influenza activity of the compounds can vary. […] A typical test would run for at least ten days.

influenza B-Taiwan = test: survival of infected mice, oral in diet (Table II); assay type: in vivo; conditions: control 1/36
Excerpt: as §2

influenza A-Texas = test: survival of infected mice, oral in diet (Table II); assay type: in vivo; conditions: control 8/36
Excerpt: as §2

influenza B-Hong Kong = test: survival of infected mice, oral in diet (Table II); assay type: in vivo; conditions: control 4/50
Excerpt: as §2

influenza Al-Ann Arbor [7] = test: survival of infected mice, oral in diet (Table II); assay type: in vivo; conditions: control 0/50
Excerpt: as §2

influenza A-Brazil = test: survival of infected mice, oral in diet (Table II); assay type: in vivo; conditions: control 10/28
Excerpt: as §2

influenza B-Great Lake [8] = test: survival of infected mice, oral in diet (Table II); assay type: in vivo; conditions: control 3/36
Excerpt: as §2

Nc1nncs1 [2-amino-1,3,4-thiadiazole]
antiviral activity [1]: certain antiviral activity

CCOC(=O)N=C(Nc1nncs1)SCC [Preparation 8]
IC50 (influenza A-NWS): > 50 µg/mL
RA (relative activity index from P, percent of maximum survival index) [2]: 5 (80-100% = 5 (very active))

CCCCSC(N)=Nc1nncs1 [Example 3, N^1-1,3,4-thiadiazol-2-ylcarbamimidothioic acid, n-butyl ester]
IC50 (influenza A-NWS): 21.3 µg/mL (≈ 98.5 µM)
IC50 (influenza B-Great Lake [3]): > 50 µg/mL
RA (relative activity index from P, percent of maximum survival index) [2]: 5 (80-100% = 5 (very active))

N#CNc1nncs1 [Example 6, 1,3,4-Thiadiazole-2-cyanamide]
IC50 (influenza A-NWS): 0.78 µg/mL (≈ 6.18 µM)
IC50 (influenza Al-Ann Arbor [4]): 0.85 µg/mL (≈ 6.74 µM)
IC50, inhibition of plaque formation by 50 percent (influenza B-Great Lake [3]): 2.25 MCG/ML

CSC(N)=Nc1nncs1 [Example 1, N^1-1,3,4-thiadiazol-2-ylcarbamimidothioic acid, methyl ester]
conversion in vivo to a salt form of the compound of Example 6 [5]: converted to a salt form of the compound of Example 6; also recorded: converted in vivo to a salt form
antiviral activity shown (Result) (RSV; drinking water): active
IC50 (Parainfluenza (type 3); BSCl cells): 4.5 µg/mL (≈ 25.8 µM)
IC50 (Parainfluenza (type 3); HELA cells): > 25 µg/mL
IC50 (influenza Al-Ann Arbor [4]): 0.68 µg/mL (≈ 3.9 µM)
antiviral activity shown (Result) (HSV I): active
IC50 (influenza B-Great Lake [3]): 16.3 µg/mL (≈ 93.5 µM)
IC50 (Herpes I): 9.6 µg/mL (≈ 55.1 µM)
IC50 (Vaccinia): 15.8 µg/mL (≈ 90.7 µM)
IC50 (Semliki Forest): 43 µg/mL (≈ 247 µM)
RA (relative activity index from P, percent of maximum survival index) [2]: 5 (80-100% = 5 (very active))

COC(=O)NC(=S)Nc1nncs1 [Preparation 5, [(1,3,4-thiadiazol-2-ylamino)thioxomethyl]carbamic acid, methyl ester]
RA (relative activity index from P, percent of maximum survival index) [2]: 5 (80-100% = 5 (very active))

C=COC(=O)NC(=S)Nc1nncs1 [Preparation 6, [(1,3,4-thiadiazol-2-ylamino)thioxomethyl]carbamic acid, vinyl ester]
RA (relative activity index from P, percent of maximum survival index) [2]: 4 (60-80% = 4 (good activity))

N#CNc1nncs1 [Example 7, 1,3,4-Thiadiazole-2-cyanamide Sodium salt]
antiviral activity shown (Result) (HSV II): active
antiviral activity shown (Result) (RSV; food): active
IC50, inhibition of plaque formation by 50 percent (influenza A-NWS; Sodium salt): 0.58 MCG/ML
IC50 (Parainfluenza (type 3); BSCl cells): 0.14 µg/mL
IC50 (Parainfluenza (type 3); HELA cells): 0.72 µg/mL
IC50, inhibition of plaque formation by 50 percent (influenza Al-Ann Arbor [4]; Sodium salt): 0.82 MCG/ML
activity against retroviruses (HIV): failed to demonstrate conclusive activity
in vitro activity against Vesicular Stomatitus Virus [6]: does not
antiviral activity shown (Result) (HSV I): active
IC50, inhibition of plaque formation by 50 percent (influenza B-Great Lake [3]; Sodium salt): 1.00 MCG/ML
activity against retroviruses (Friend Leukemia): failed to demonstrate conclusive activity
IC50 (Herpes I): 2.95 µg/mL
IC50 (Herpes II): 0.19 µg/mL
IC50 (Vaccinia; Vero): 0.29 µg/mL
IC50 (Vaccinia): < 0.31 µg/mL
IC50 (Semliki Forest): < 0.23 µg/mL

NC(N)=Nc1nncs1 [Example 8, 1,3,4-Thiadiazole-2-guanidine]
IC50 (influenza Al-Ann Arbor [4]): 0.02 µg/mL (≈ 0.14 µM)
IC50 (influenza B-Great Lake [3]): 0.27 µg/mL (≈ 1.89 µM)

CCOC(=O)N=C(Nc1nncs1)SC [Preparation 7, [(Methylthio)(1,3,4-thiadiazol-2-ylamino)methyl]carbamic acid, ethyl ester]
IC50 (influenza A-NWS): 75.5 µg/mL (≈ 307 µM)
RA (relative activity index from P, percent of maximum survival index) [2]: 5 (80-100% = 5 (very active))

NC(=Nc1nncs1)SCc1ccccn1 [Example 4, N^1-1,3,4-thiadiazol-2-ylcarbamimidothioic acid, 2-pyridinylmethyl ester, hydrochloride]
IC50 (influenza A-NWS): > 50 µg/mL
IC50 (influenza B-Great Lake [3]): > 50 µg/mL
RA (relative activity index from P, percent of maximum survival index) [2]: 2.5

NC(=S)Nc1nncs1 [Preparation 2, 1,3,4-Thiadiazol-2-ylthiourea]
IC50 (influenza A-NWS): 3.6 µg/mL (≈ 22.5 µM)
IC50 (influenza Al-Ann Arbor [4]): > 50 µg/mL
in vitro activity against Vesicular Stomatitus Virus [6]: displays in vitro activity
IC50 (influenza B-Great Lake [3]): 7 µg/mL (≈ 43.7 µM)
number of animals surviving over number tested (S/N) (influenza B-Maryland; 60 mg/kg/day): 19/20
number of animals surviving over number tested (S/N) (influenza B-Maryland; 120 mg/kg/day): 20/20
number of animals surviving over number tested (S/N) (influenza B-Taiwan; 15 mg/kg/day): 4/18
number of animals surviving over number tested (S/N) (influenza B-Taiwan; 30 mg/kg/day): 15/18
number of animals surviving over number tested (S/N) (influenza B-Taiwan; 60 mg/kg/day): 18/18
number of animals surviving over number tested (S/N) (influenza B-Taiwan; 120 mg/kg/day): 18/18
number of animals surviving over number tested (S/N) (influenza A-Texas; 15 mg/kg/day): 5/18
number of animals surviving over number tested (S/N) (influenza A-Texas; 30 mg/kg/day): 8/18
number of animals surviving over number tested (S/N) (influenza A-Texas; 60 mg/kg/day): 12/18
number of animals surviving over number tested (S/N) (influenza A-Texas; 120 mg/kg/day): 16/18
number of animals surviving over number tested (S/N) (influenza B-Hong Kong; 60 mg/kg/day): 10/20
number of animals surviving over number tested (S/N) (influenza B-Hong Kong; 120 mg/kg/day): 16/20
number of animals surviving over number tested (S/N) (influenza Al-Ann Arbor [7]; 60 mg/kg/day): 20/20
number of animals surviving over number tested (S/N) (influenza Al-Ann Arbor [7]; 120 mg/kg/day): 20/20
number of animals surviving over number tested (S/N) (influenza A-Brazil; 15 mg/kg/day): 5/15
number of animals surviving over number tested (S/N) (influenza A-Brazil; 30 mg/kg/day): 5/16
number of animals surviving over number tested (S/N) (influenza A-Brazil; 60 mg/kg/day): 12/18
number of animals surviving over number tested (S/N) (influenza A-Brazil; 120 mg/kg/day): 14/18
number of animals surviving over number tested (S/N) (influenza B-Great Lake [8]; 15 mg/kg/day): 11/18
number of animals surviving over number tested (S/N) (influenza B-Great Lake [8]; 30 mg/kg/day): 16/18
number of animals surviving over number tested (S/N) (influenza B-Great Lake [8]; 60 mg/kg/day): 17/18
number of animals surviving over number tested (S/N) (influenza B-Great Lake [8]; 120 mg/kg/day): 18/18

O=C(NC(=S)Nc1nncs1)Oc1ccccc1 [Preparation 3, [(1,3,4-Thiadiazol-2-ylamino)thioxomethyl]carbamic acid, phenyl ester]
IC50 (influenza A-NWS): < 1.6 µg/mL
RA (relative activity index from P, percent of maximum survival index) [2]: 5 (80-100% = 5 (very active))

N#CCSC(N)=Nc1nncs1 [Example 5, N^1-1,3,4-thiadiazol-2-ylcarbamimidothioic acid, cyanomethyl ester]
RA (relative activity index from P, percent of maximum survival index) [2]: 2.5

CCCCCCOC(=O)NC(=S)Nc1nncs1 [Preparation 4, [(1,3,4-Thiadiazol-2-ylamino)thioxomethyl]carbamic acid, n-hexyl ester]
RA (relative activity index from P, percent of maximum survival index) [2]: 5 (80-100% = 5 (very active))

CCSC(N)=Nc1nncs1 [Example 2, N^1-1,3,4-thiadiazol-2-ylcarbamimidothioic acid, ethyl ester]
IC50 (influenza A-NWS): 18.9 µg/mL (≈ 100 µM)
IC50 (influenza B-Great Lake [3]): 9.5 µg/mL (≈ 50.5 µM)
RA (relative activity index from P, percent of maximum survival index) [2]: 5 (80-100% = 5 (very active))

CCOC(=O)NC(=S)Nc1nncs1 [Preparation 1, [(1,3,4-Thiadiazol-2-ylamino)thioxomethyl]carbamic acid, ethyl ester]
IC50 (influenza A-NWS): 43 µg/mL (≈ 185 µM)
IC50 (influenza B-Great Lake [3]): > 50 µg/mL
RA (relative activity index from P, percent of maximum survival index) [2]: 4.5
